Experimental data from patent US20100029752A1, “NOVEL COMPOUNDS, PHARMACEUTICAL COMPOSITIONS CONTAINING SAME, AND METHODS OF USE FOR SAME” (priority 2005, published 2010).
Converted amounts (≈) assume the structure as drawn.

What was measured:
Assay type in all cases: cell-based
OV = experiment: XTT cytotoxicity assay (OV); conditions: (OV) cells
Protocol: The XTT assay is a non-radioactive alternative for the [^51Cr] release cytotoxicity assay. XTT is a tetrazolium salt that is reduced to a formazan dye only by metabolically active, viable cells. The reduction of XTT is measured spectrophotometrically as OD490-OD650. After 72 hours of incubation, cells are incubated for 4 hours with the XTT reagent as per manufacturer's instructions (Cell Proliferation Kit 11 (XTT) Roche). Plates are read at OD490 and OD650 on a Molecular Devices SpectraMax Plus Spectrophotometer. Three wells containing the XTT reagent without cells serve as the plate blank. XTT data are reported as OD490-OD650. Averages and standard error of the mean are computed using SOFTmax Pro software (Molecular Dynamics). The IC50 for the compounds is defined as the concentration of drug leading to a 50% reduction in OD490-OD650 compared to controls. The OD490-OD650 are computed by the SOFTmax PRO software (Molecular Devices) for each compound concentration. IC50 is calculated by linear regression, plotting the FAS activity as percent of control versus drug concentrations. Linear regression, best-fit line, r^2, and 95% confidence intervals are determined using Prism Version 3.0 (Graph Pad Software).

[1] = system: MCF-7 human breast cancer cells; experiment: Crystal violet cell growth assay; conditions: MCF7, MCF-7 cells, 72 hours, read-out: Cr. Violet (IC50)
Protocol: The crystal violet assay measures cell growth but not cytotoxicity. This assay employs crystal violet staining of fixed cells in 96-well plates with subsequent solubilization and measurement of OD490 on a spectrophotometer. The OD490 corresponds to cell growth per unit time measured. Cells are treated with the compounds of interest or vehicle controls and IC50 for each compound is computed.
To measure the cytotoxicity of specific compounds against cancer cells, 5×10^4 MCF-7 human breast cancer cells, obtained from the American Type Culture Collection are plated per well in 24 well plates in DMEM medium with 10% fetal bovine serum, penicillin, and streptomycin. Following overnight culture at 37° C. and 5% CO2, the compounds to be tested, dissolved in DMSO, are added to the wells in 1 μl volume at the following concentrations: 50, 40, 30, 20, and 10 μg/ml in triplicate. Additional concentrations are tested if required. 1 μl of DMSO is added to triplicate wells are the vehicle control. C75 is run at 10, and 5 μg/ml in triplicate as positive controls.
After 72 hours of incubation, cells are stained with 0.5 ml of Crystal Violet stain (0.5% in 25% methanol) in each well. After 10 minutes, wells are rinsed, air dried, and then solubilized with 0.5 ml 10% sodium dodecylsulfate with shaking for 2 hours. Following transfer of 100 μl from each well to a 96-well plate, plates are read at OD490 on a Molecular Devices SpectraMax Plus Spectrophotometer Average OD490 values are computed using SOFTmax Pro Software (Molecular Devices) and IC50 values are determined by linear regression analysis using Prism version 3.02 (Graph Pad Software, San Diego).

[2] = system: fatty acid synthesis pathway activity in MCF-7 human breast cancer cells; experiment: [14C]acetate incorporation into total lipids; conditions: MCF-7 cells, [14C]acetate into lipids; for IC50: Homo sapiens, MCF7
Protocol: This assay measures the incorporation of [^14C]acetate into total lipids and is a measure of fatty acid synthesis pathway activity in vitro. It is utilized to measure inhibition of fatty acid synthesis in vitro.
MCF-7 human breast cancer cells cultured as above, are plated at 5×10^4 cells per well in 24-well plates. Following overnight incubation, the compounds to be tested, solubilized in DMSO, are added at 5, 10, and 20 μg/ml in triplicate, with lower concentrations tested if necessary. DMSO is added to triplicate wells for a vehicle control. C75 is run at 5 and 10 μg/ml in triplicate as positive controls. After 4 hours of incubation, 0.25 μCi of [^14C]acetate (10 μl volume) is added to each well.
After 2 hours of additional incubation, medium is aspirated from the wells and 800 μl of chloroform:methanol (2:1) and 700 μl of 4 mM MgCl2 is added to each well. Contents of each well are transferred to 1.5 Eppendorf tubes, and spun at full-speed for 2 minutes in a high-speed Eppendorf Microcentrifuge 5415D. After removal of the aqueous (upper) layer, an additional 700 μl of chloroform:methanol (2:1) and 500 μl of 4 mM MgCl2 are added to each tube and then centrifuged for 1 minutes as above. The aqueous layer is removed with a Pasteur pipette and discarded. An additional 400 μl of chloroform:methanol (2:1) and 200 μl of 4 mM MgCl2 are added to each tube, then centrifuged and aqueous layer is discarded. The lower (organic) phase is transferred into a scintillation vial and dried at 40° C. under N2 gas. Once dried, 3 ml of scintillant (APB #NBC5104) is added and vials are counted for ^14C. The Beckman Scintillation counter calculates the average cpm values for triplicates.
The IC50 for the compounds is defined as the concentration of drug leading to a 50% reduction in [^14C]acetate incorporation into lipids compared to controls. This is determined by plotting the average cpm for each inhibitor concentration tested, performing linear regression and computing the best-fit line, r^2 values, and 95% confidence intervals. The average cpm values are computed by the Beckman scintillation counter (Model LS6500) for each compound concentration. Computation of linear regression, best-fit line, r^2, and 95% confidence intervals are calculated using Prism Version 3.0 (Graph Pad Software).

IC50 [1] [µg/mL]	IC50 [2] [µg/mL]	14C (IC50) [2]	SMILES	IC50 (OV) [µg/mL]
38.8 (≈ 124 µM)	20.5 (≈ 65.4 µM)	–	CCCCCCCCNC(=O)c1cc(O)c(C(=O)OC)s1	37.1 (≈ 118 µM)
31.7 (≈ 96.5 µM)	41.2 (≈ 125 µM)	–	CCCCCCCCNNC(=O)c1cc(O)c(C(=O)OC)s1	77.1 (≈ 235 µM)
8.5 ± 2.1 (≈ 33.3 µM)	17.6 ± 1.9 (≈ 68.9 µM)	–	CCCCCCCCNC(=O)c1cc(O)cs1	9.5 (≈ 37.2 µM)

The remaining lines, values behind:

SMILES	IC50 [1] [µg/mL]	IC50 [2] [µg/mL]	14C (IC50) [2]	IC50 (OV) [µg/mL]
COC(=O)c1sc(C(=O)NNc2ccc(Cl)cc2)cc1O	18.1 ± 4.4 (≈ 55.4 µM)	25.2 (≈ 77.1 µM)	–	50 ± 5 (≈ 153 µM)
COC(=O)c1sc(C(=O)O)cc1O	> 80	55.2 (≈ 273 µM)	–	> 80
C=CCNC(=O)c1cc(O)c(C(=O)OC)s1	> 80	–	Neg	> 80
